Literature values in US20180214412A1, “IMMEDIATE RELEASE CANNABINOID FORMULATIONS” (CannTab Therapeutics Limited, priority 2017, published 2018).

Settings: after administration

CCCCCc1cc(O)c2c(c1)OC(C)(C)[C@@H]1CCC(C)=C[C@@H]21 [Dronabinol, (−)-trans-Δ9-tetrahydrocannabinol]
duration of appetite stimulant effect: ≥ 24 h
